Our source for the MIC values is US11746116B2, “Antibiotic resistance breakers” (KING'S COLLEGE LONDON, priority 2017, dated 2023).

Each structure is given as a SMILES string. In brackets after ≈: the same amount, converted by molar mass. Read-outs that look alike come from different tables or passages of the source.

The test system of this test is extended bacterial panel. Kind of test: MIC against an extended bacterial panel (Table 15). The test is classed as cell-based.

Usually MIC stands for the least concentration at which growth counts as inhibited. With `CC(=O)NC[C@H]1CN(c2ccc(N3CCOCC3)c(F)c2)C(=O)O1` [Linezolid], the MIC reads like this: (Staphylococcus aureus, ATCC 700699 / MRSA / VISA, Staphylococcus aureus Mu50, ATCC 700699, MRSA/VISA, read-out: MIC) 2 µg/mL (≈ 5.93 µM); (Staphylococcus aureus, MRSA / NRS 3 / VISA, Staphylococcus aureus NRS3, MRSA/VISA, read-out: MIC) 1 µg/mL (≈ 2.96 µM); (Staphylococcus aureus, MRSA / NRS 17 / VISA, Staphylococcus aureus NRS17, MRSA/VISA, read-out: MIC) 2 µg/mL (≈ 5.93 µM); (Staphylococcus aureus, MRSA / NRS 22 / USA600 / VISA, Staphylococcus aureus NRS22, USA600 MRSA/VISA, read-out: MIC) 4 µg/mL (≈ 11.9 µM); (Staphylococcus aureus, MRSA / NRS 56 / VISA, Staphylococcus aureus NRS56, MRSA/VISA, read-out: MIC) 2 µg/mL (≈ 5.93 µM); (Staphylococcus aureus, MRSA / NRS 100, Staphylococcus aureus COL, NRS100, MRSA, read-out: MIC) 2 µg/mL (≈ 5.93 µM). Also, the MIC amounted to 2 µg/mL (≈ 5.93 µM) (Staphylococcus aureus, MRSA / NRS 269, Staphylococcus aureus NRS269, MRSA TGC-NS, read-out: MIC); 1 µg/mL (≈ 2.96 µM) (Staphylococcus aureus, MRSA / NRS 402 / VISA, Staphylococcus aureus NRS402, MRSA/VISA DAP-NS); 4 µg/mL (≈ 11.9 µM) (Staphylococcus aureus, MRSA / VISA, Staphylococcus aureus FDA-CDC AR-BANK# 0215, MRSA/VISA, read-out: MIC); 2 µg/mL (≈ 5.93 µM) (Staphylococcus aureus, MRSA / VISA, Staphylococcus aureus FDA-CDC AR-BANK# 0216, MRSA/VISA, read-out: MIC); 1 µg/mL (≈ 2.96 µM) (Staphylococcus aureus, MRSA / VISA, Staphylococcus aureus FDA-CDC AR-BANK# 0217, MRSA/VISA, read-out: MIC); 1 µg/mL (≈ 2.96 µM) (Staphylococcus aureus, MRSA / VISA, Staphylococcus aureus FDA-CDC AR-BANK# 0218, MRSA/VISA Mupirocin-R, read-out: MIC). The MIC by setting is: (Staphylococcus aureus, MRSA / VISA, Staphylococcus aureus FDA-CDC AR-BANK# 0219, MRSA/VISA, read-out: MIC) 2 µg/mL (≈ 5.93 µM); (Staphylococcus aureus, MRSA / VISA, Staphylococcus aureus FDA-CDC AR-BANK# 0220, MRSA/VISA, read-out: MIC) 2 µg/mL (≈ 5.93 µM); (Staphylococcus aureus, MRSA / VISA, Staphylococcus aureus FDA-CDC AR-BANK# 0221, MRSA/VISA, read-out: MIC) 2 µg/mL (≈ 5.93 µM); (Staphylococcus aureus, MRSA / VISA, Staphylococcus aureus FDA-CDC AR-BANK# 0223, MRSA/VISA, read-out: MIC) 2 µg/mL (≈ 5.93 µM); (Staphylococcus aureus, MRSA / VISA, Staphylococcus aureus FDA-CDC AR-BANK# 0224, MRSA/VISA Mupirocin-R, read-out: MIC) 4 µg/mL (≈ 11.9 µM); (Staphylococcus aureus, MRSA / VISA, Staphylococcus aureus FDA-CDC AR-BANK# 0225, MRSA/VISA, read-out: MIC) 2 µg/mL (≈ 5.93 µM). In addition, the MIC stood at 2 µg/mL (≈ 5.93 µM) (Staphylococcus aureus, MRSA / VISA, Staphylococcus aureus FDA-CDC AR-BANK# 0226, MRSA/VISA, read-out: MIC); 4 µg/mL (≈ 11.9 µM) (Staphylococcus aureus, MRSA / VISA, Staphylococcus aureus FDA-CDC AR-BANK# 0227, MRSA/VISA, read-out: MIC); 2 µg/mL (≈ 5.93 µM) (Staphylococcus aureus, MRSA / VISA, Staphylococcus aureus FDA-CDC AR-BANK# 0228, MRSA/VISA Mupirocin-R, read-out: MIC); 2 µg/mL (≈ 5.93 µM) (Staphylococcus aureus, MRSA / VRSA, Staphylococcus aureus VRS1, VanA MRSA/VRSA, read-out: MIC); 2 µg/mL (≈ 5.93 µM) (Staphylococcus aureus, MRSA / VRSA, Staphylococcus aureus VRS2, VanA MRSA/VRSA, read-out: MIC); 4 µg/mL (≈ 11.9 µM) (Staphylococcus aureus, MRSA / VRSA, Staphylococcus aureus VRS3a, VanA MRSA/VRSA, read-out: MIC). The MIC runs as follows: (Staphylococcus aureus, MRSA / VRSA, Staphylococcus aureus VRS11b, VanA MRSA/VRSA, read-out: MIC) 2 µg/mL (≈ 5.93 µM); (Staphylococcus aureus, MRSA, Staphylococcus aureus ECL 2963666, MRSA DAP-NS, read-out: MIC) 1 µg/mL (≈ 2.96 µM); (Staphylococcus aureus, NRS 12 / VISA, Staphylococcus aureus NRS12, VISA, read-out: MIC) 4 µg/mL (≈ 11.9 µM); (Staphylococcus aureus, VISA, Staphylococcus aureus FDA-CDC AR-BANK# 0222, VISA, read-out: MIC) 2 µg/mL (≈ 5.93 µM); (Staphylococcus aureus, VRSA, Staphylococcus aureus ECL 2963646, VRSA, read-out: MIC) 2 µg/mL (≈ 5.93 µM); (Staphylococcus epidermidis, NRS7, Staphylococcus epidermidis NRS7, VISE, read-out: MIC) 4 µg/mL (≈ 11.9 µM). For the same compound, the MIC was determined as 2 µg/mL (≈ 5.93 µM) (Staphylococcus epidermidis, NRS8, Staphylococcus epidermidis NRS8, VISE, read-out: MIC) and 2 µg/mL (≈ 5.93 µM) (Staphylococcus epidermidis, NRS60, Staphylococcus epidermidis NRS60, VISE, read-out: MIC).
For `CN(C)c1cc(NC(=O)CNC(C)(C)C)c(O)c2c1C[C@H]1C[C@H]3[C@H](N(C)C)C(O)=C(C(N)=O)C(=O)[C@@]3(O)C(O)=C1C2=O` [Tigecycline, tigecycline, reference compound], the lowest concentration to inhibit growth (Enterococcus faecalis, ATCC29212, Enterococcus faecalis ATCC 29212) (MIC) was 0.125 µg/mL (≈ 0.213 µM); inhibition of growth (Enterococcus faecalis, ATCC51299, Enterococcus faecalis ATCC 51299, VanB) (MIC) required 0.0625 µg/mL (≈ 0.107 µM); the MIC (Enterococcus faecalis, ATCC51575, Enterococcus faecalis ATCC 51575, VanB) was 0.125 µg/mL (≈ 0.213 µM); the MIC (Enterococcus faecalis, ATCC700802, Enterococcus faecalis ATCC 700802, VanB) amounted to 0.125 µg/mL (≈ 0.213 µM); the MIC (Enterococcus faecalis, CCUG47775, Enterococcus faecalis CCUG 47775, Van A) is 0.125 µg/mL (≈ 0.213 µM); the lowest concentration to inhibit growth (Enterococcus faecium, CCUG59167, Enterococcus faecium TUH44-29, CCUG 59167, Van A) (MIC) was 0.0625 µg/mL (≈ 0.107 µM). Besides, inhibition of growth (Enterococcus gallinarum, ATCC 49608 / GALLINARUM, Enterococcus gallinarum ATCC 49608, VanC) (MIC) required 0.125 µg/mL (≈ 0.213 µM).
